Measured values published in patent publication US4533747A, “Leukotriene antagonists intermediates” (SmithKline Beckman Corporation, priority 1983, dated 1985).

The compounds below were run against T1, leukotriene (LTD4) induced contraction of guinea pig tracheal tissues (Cavia porcellus, UniProt Q2NNR5) (assay: Inhibition of LTD4-induced contraction of guinea pig tracheal tissues in vitro). Conditions: LTD4 cumulative concentration-response; guinea pig tracheal spiral strips; 30 min pretreatment with test compound; meclofenamic acid 1 μM; EC30 relative to carbachol 10 μM; read-out: pA2 (converted).
T1 construct: Guinea pig (adult male albino Hartley strain) tracheal spiral strips; from tissue; host or cells: guinea pig (adult male albino Hartley strain) tracheal spiral strips
T1 sequence (Q2NNR5 1-340): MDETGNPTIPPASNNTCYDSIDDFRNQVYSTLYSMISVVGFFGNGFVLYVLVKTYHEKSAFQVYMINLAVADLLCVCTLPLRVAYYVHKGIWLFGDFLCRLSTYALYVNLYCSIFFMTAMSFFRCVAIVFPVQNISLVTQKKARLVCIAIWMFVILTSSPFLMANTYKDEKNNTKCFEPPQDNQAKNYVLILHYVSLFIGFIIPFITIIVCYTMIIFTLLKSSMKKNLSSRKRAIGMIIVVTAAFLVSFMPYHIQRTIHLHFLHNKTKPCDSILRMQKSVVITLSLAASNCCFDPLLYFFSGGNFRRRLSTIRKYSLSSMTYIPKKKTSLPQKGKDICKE
Type: cell-based, Guinea pig (adult male albino Hartley strain)
Method: The leukotriene antagonist activity of the compounds of formula (II) is measured by the ability of the compound to inhibit leukotriene induced contraction of guinea pig tracheal tissues in vitro. The following methodology was employed:
In vitro: Guinea pig (adult male albino Hartley strain) tracheal spiral strips of approximate dimensions 2 to 3 mm cross-sectional width and 3.5 cm length were bathed in modified Krebs buffer in jacketed 10 ml tissue bath and continously aerated with 95% O2 /5% CO2. The tissues were connected via silk suture to force displacement transducers for recording isometric tension. The tissues were equilibrated for 1 hr., pretreated for 15 minutes with meclofenamic acid (1 μM) to remove intrinsic prostaglandin responses, and then pretreated for an additional 30 minutes with either the test compound or vehicle control. A cumulative concentration-response curve for LTD4 on triplicate tissues was generated by successive increases in the bath concentration of the LTD4. In order to minimize intertissue variability, the contractions elicited by LTD4 were standardized as a percentage of the maximum response obtained to a reference agonist, carbachol (10 μM).
Calculations: The averages of the triplicate LTD4 concentration-response curves both in the presence and absence of the test compound were plotted on log graph paper. The concentration of LTD4 needed to elicit 30% of the contraction elicited by carbachol was measured and defined as the EC30. The pA2 value for the test compound as determined by the following equations: [formula]
Work on CCCCCCCCCCCC/C=C\C(CO)SCCC(=O)O (stereo not drawn) [2-[(2-Carboxyethyl)thio]-3(Z)-hexadecen-1-ol] yielded a Kb of 5.01 µM. Compound CCCCCCCCCCCC/C=C\C(SCCC(=O)O)C(=O)O (stereo not drawn) [2-[(2-Carboxyethyl)thio]-3(Z)-hexadecenoic acid] has a Kb of 1 µM. CCCCCCCCCCCC/C=C\C(SCCC(=O)O)C(O)CC(=O)O (stereo not drawn) [3-Hydroxy-4-[(2-carboxyethyl)thio]-5(Z)-octadecenoic acid] showed a Kb of 0.794 µM.
